From US20240425529A1, “BORIC ACID DERIVATIVE” (SHOUYAO HOLDINGS (BEIJING) CO., LTD., priority 2021, published 2024)

Experiments:
LMP7 [1] = target: T1, LMP7 (Homo sapiens, UniProt P28062); experiment: Cytological inhibitory activity on LMP7 in MOLT-4 cells; assay type: cell-based; conditions: incubation for 2 hours with compound, read-out: Cytological activity data LMP7 Activity (MOLT-4Cell)
T1 construct: using MOLT-4 cell lysate as the enzyme source of LMP7; endogenous in cells; host or cells: MOLT-4 (human acute lymphoblastic leukemia cells)
Experimental: MOLT-4 are human acute lymphoblastic leukemia cells and have been identified as cells with high expression of LMP7. In this experiment, the compounds were pre-incubated with MOLT-4, and Ac-ANW-AMC (BonstonBiochem, Cat #S-320) was used as the substrate of LMP7 to establish the detection method for the enzymatic activity of LMP7 in cells and detect the compound inhibitory activity (half inhibitory concentration, IC50).
Cells were plated in a 24-well plate (Corning) at a concentration of 1.5×10^5/ml per well. The next day compounds were prepared and diluted in a 5-fold gradient from 2 mM in 100% DMSO for a total of 8 concentrations. 2 μl for each concentration of the compound was added to a 1-ml cell culture medium, supplemented with 1 ml of RPMI-1640 only (final FBS concentration 5%, v/v). The compounds were mixed with the cells. After incubation for 2 hours in the incubator, the cells were centrifuged at 2000 rpm for 8 minutes to discard the supernatant. The cells were washed once with 2 ml PBS (Solarbio), and centrifuged again to discard the supernatant. The cells were resuspended in 100 μl of lysis buffer (20 mM Tris, pH 8.0, 5 mM EDTA, plus Protease inhibitor (1: 100) and Phosphatase Inhibitor (1:100) when used) and left in a 4° C. refrigerator for 45 minutes.
After 2 min. of centrifuge at 2000 rpm, the lysate was transferred from the 24-well plate to a 96-well plate, and centrifuged at 2000 rpm, 4° C., for 15 min. The supernatant was the lysate. Protein quantification was performed using the BCA method (Thermo, #23225). A 2* lysate was prepared with the reaction buffer (20 mM Tris, pH 8.0, 0.5 mM EDTA) at a final concentration of 20 ng/μl. 2* Ac-ANW-AMC was prepared with the reaction buffer at a final concentration of 100 μM. 10 µl of 2* lysate was added to a 384-well plate (OptiPlate-384, purchased from PerkinElmer), and added with 10 W of 2* Ac-ANW-AMC. The reaction was started by centrifugation at 23° C. in the dark for 1 hour. After completion of the reaction, the signal value (excitation wavelength 345 nm/emission wavelength 445 nm) was read on the CLARIO starPlus (purchased from BMG LRBTECH). Enzyme activity was determined at 8 concentrations for each compound, and data were processed using the GraphPad Prism software to calculate the half inhibitory concentration of the compound on LMP7 hydrolase in MOLT-4 cells, i.e. the IC50 value.

β5 = target: T2, β5 (Homo sapiens, UniProt P28074); experiment: Enzymatic inhibitory activity on β5 (HEK-293 cell lysate, Ac-WLA-AMC substrate); assay type: biochemical; conditions: 1 hour pre-incubation
T2 construct: using HEK-293 cell lysate as the enzyme source of D5; endogenous in cells; host or cells: HEK-293 (human embryonic kidney cells)
Text: β5 is a catalytic subunit of immunoproteasomes. In this experiment, an enzymatic detection platform was established using its hydrolytic enzyme activity and used for compound activity detection. Using Ac-WLA-AMC (Bonston Biochem, Cat #5-330) as a substrate for D5, the amount of fluorescent group AMC (7-amino-4-methylcoumarin) released after hydrolysis can reflect the enzymatic activity. […] We established an enzymatic detection method for compound inhibition on D5 using HEK-293 cell lysate as the enzyme source of D5 and detected the compound inhibitory activity (half inhibitory concentration, IC50). The enzymatic inhibitory activity of compounds against D5 was used as a measure index of compound selectivity.
(§1) HEK-293 cells were cultured in a 75 cm^2 cell culture flask (Corning) (37° C., 95% air, and 5% CO2) with DMEM (Biological Industries) medium containing 10% fetal bovine serum (Biological Industries) and 1% Pen Strep (Gibco) and passaged 2-3 times one week. 1×10^7 HEK-293 cells were collected, resuspended in 1 ml of PBS (Solarbio), and centrifuged at 3000 rpm for 5 minutes. The supernatant was aspirated off. The cells were resuspended in 500 μl of lysis buffer (20 mM Tris, pH 8.0, 5 mM EDTA, plus Protease inhibitor (1:1000) and Phosphatase Inhibitor (1:100) when used) and left on ice for 30 minutes. The cells were broken by supersonic technique, 0.5 S on, 0.5 S off, for 2.5 S. The centrifuge was performed at 12000 rpm, 4° C. for 10 minutes. The supernatant was the cell lysate and protein quantification was performed using the BCA method (Thermo, #23225).
Compounds were diluted in a 5-fold gradient with 100% DMSO for a total of 9 concentrations. 2 W for each concentration was added to a 48-μl reaction buffer (20 mM Tris, pH 8.0, 0.5 mM EDTA) and mixed well as 4* compound (final concentrations: 100000, 20000, 4000, 800, 160, 32, 6.4, 1.28, and 0 nM) for later use. A reaction buffer was used to prepare 4*HEK-293 cell lysate at a final concentration of 25 ng/μl and 2*Ac-WLA-AMC at a final concentration of 20 μM. 5 W of 4* compound was added to a 384-well plate (OptiPlate-384, purchased from PerkinElmer), added with 5 W of 4*HEK-293 cell lysate, centrifuged, and reacted in an incubator at 23° C. for 1 hour. 10 W of 2* Ac-WLA-AMC was added and the reaction was started by centrifugation at 23° C. in the dark for 2 hours. After completion of the reaction, the signal value (excitation wavelength 345 nm/emission wavelength 445 nm) was read on the CLARIO star^Plus (purchased from BMG LRBTECH). Enzyme activity was determined at 9 concentrations for each compound, and data were processed using the GraphPad Prism software to calculate the half inhibitory concentration of the compound on D5, i.e. the IC50 value.

LMP7 [2] = target: T1, LMP7; experiment: Enzymatic inhibitory activity on LMP7 (MOLT-4 cell lysate, Ac-ANW-AMC substrate); assay type: biochemical; conditions: 1 hour pre-incubation
Text: LMP7 is a catalytic subunit of immunoproteasomes. In this experiment, an enzymatic detection platform was established using its hydrolytic enzyme activity and used for compound activity detection. Using Ac-ANW-AMC (Bonston Biochem, Cat #S-320) as a substrate for LMP7, the amount of fluorescent group AMC (7-amino-4-methylcoumarin) released after hydrolysis can reflect the enzymatic activity. MOLT-4 cells are human acute lymphoblastic leukemia cells and have been identified as cells with high expression of LMP7. We established an enzymatic detection method for compound inhibition on LMP7 using MOLT-4 cell lysate as the enzyme source of LMP7 and detected the compound inhibitory activity (half inhibitory concentration, IC50).
as §1, with “MOLT-4 cells were” for “HEK-293 cells were”, “CO2) with RPMI-1640 (Biological Industries)” for “CO2) with DMEM (Biological Industries)”, “week. 1×10^7 MOLT-4 cells were” for “week. 1×10^7 HEK-293 cells were”, “was performed by using the” for “was performed using the”
Compounds were diluted in a 5-fold gradient with 100% DMSO for a total of 9 concentrations: 2 W for each concentration was added to a 48-μl reaction buffer (20 mM Tris, pH 8.0, 0.5 mM EDTA) and mixed well as 4* compound (final concentrations: 2000, 400, 80, 16, 3.2, 0.64, 0.128, 0.0256, and 0 nM) for later use. A reaction buffer was used to prepare 4* MOLT-4 cell lysate at a final concentration of 20 ng/μl and 2*Ac-ANW-AMC at a final concentration of 100 µM. 5 μl of 4* compound was added to a 384-well plate (OptiPlate-384, purchased from PerkinElmer), added with 5 W of 4* cell lysate, centrifuged, and reacted in an incubator at 23° C. for 1 hour. 10 W of 2* Ac-ANW-AMC was added and the reaction was started by centrifugation at 23° C. in the dark for 2 hours. After completion of the reaction, the signal value (excitation wavelength 345 nm/emission wavelength 445 nm) was read on the CLARIO star^Plus (purchased from BMG LRBTECH). Enzyme activity was determined at 9 concentrations for each compound, and data were processed using the GraphPad Prism software to calculate the half inhibitory concentration of the compound on LMP7, i.e. the IC50 value.

| SMILES | IC50 (LMP7 [1]) [nM] | IC50 (β5) [nM] | IC50 (LMP7 [2]) [nM] |
| --- | --- | --- | --- |
| O=C(Nc1cnccn1)C(=O)N[C@@H](Cc1coc2ccccc12)B1OC(=O)c2ccccc2O1 [Ex. 20, N-((1R)-2-(1-benzofuran-3-yl)-1-(4-oxo-2,4-dihydro-1,3,2-benzo[d][1,3,2]dioxaborinin-2-yl)ethyl)-N-(pyrazin-2-yl)oxalamide] | 0.32 | 18.8 | 1.2 |
| O=C(NCC1CCCO1)C(=O)N[C@@H](Cc1coc2ccccc12)B(O)O (stereo partly drawn) [Ex. 22, (R)-(2-(benzofuran-3-yl)-1-(2-(((tetrahydrofuran-2-yl)methyl)amino)-2-oxoacetamido)ethyl)boronic acid] | 1.83 | 22.2 | 3.57 |
| CC1(C)[C@@H]2C[C@H]3OB([C@H](Cc4coc5ccccc45)NC(=O)C(=O)Nc4ccccn4)O[C@@]3(C)[C@H]1C2 [Ex. 23, (R)-(2-(benzofuran-3-yl)-1-(2-oxo-2-(pyridin-2-ylamino)acetamido)ethyl) boronic acid (1S,2S,3R,5S)-(+)-pinane-2,3-diol ester] | 1.65 | 126 | 3.81 |
| O=C(N[C@@H](Cc1coc2ccccc12)B(O)O)C(=O)N1CC2COCC2C1 (stereo partly drawn) [Ex. 29, (R)-(2-(benzofuran-3-yl)-1-(2-oxo-2-(tetrahydro-1H-furo[3,4-c]pyrrol-5(3H)-yl)acetamido)ethyl)boronic acid] | 15.9 | 41.4 | 7.81 |
| CC1(C)[C@@H]2C[C@H]3OB([C@H](Cc4coc5ccccc45)NC(=O)C(=O)Nc4ncc(F)s4)O[C@@]3(C)[C@H]1C2 [Ex. 33, (R)-(2-(benzofuran-3-yl)-1-(2-oxo-2-((5-fluorothiazol-2-yl)amino)acetamido)ethyl)boronic acid (1S,2S,3R,5S)-(+)-pinane-2,3-diol ester] | 9.5 | 39 | 3.08 |

The next lines start with the values.

| IC50 (LMP7 [1]) [nM] | IC50 (β5) [nM] | IC50 (LMP7 [2]) [nM] | SMILES |
| --- | --- | --- | --- |
| 3.45 | 29 | 2.86 | O=C(Nc1cccnc1)C(=O)N[C@@H](Cc1coc2ccccc12)B(O)O [Ex. 21, (R)-(2-(benzofuran-3-yl)-1-(2-(pyridin-3-yl)amino-2-oxoacetamido)ethyl) boronic acid] |
| 3.92 | 115 | 6.27 | O=C(Nc1cc(Cl)ccc1Cl)C(=O)N[C@@H](Cc1coc2ccccc12)B(O)O [Ex. 24, ((R)-2-(benzofuran-3-yl)-1-(2-oxo-2-((2,5-dichlorophenyl)amino)acetamido)ethyl)boronic acid] |
| 0.73 | 19.4 | 4.86 | COc1ccc2nc(NC(=O)C(=O)N[C@@H](Cc3coc4ccccc34)B(O)O)sc2c1 [Ex. 26, (R)-(2-(benzofuran-3-yl)-1-(2-oxo-2-((6-methoxybenzo[d]thiazol-2-yl)amino)acetamido)ethyl)boronic acid] |
| 3.84 | 22.6 | 3.82 | O=C(Nc1cccc2c1OCC2)C(=O)N[C@@H](Cc1coc2ccccc12)B(O)O [Ex. 28, (R)-(2-(benzofuran-3-yl)-1-(2-oxo-2-((2,3-dihydrobenzofuran-7-yl)amino)acetamido)ethyl)boronic acid] |
| 8.77 | 24.6 | 5.61 | O=C(Nc1cccc2c1OCCO2)C(=O)N[C@@H](Cc1coc2ccccc12)B(O)O [Ex. 30, (R)-(2-(benzofuran-3-yl)-1-(2-oxo-2-((2,3-dihydrobenzo[b][1,4]dioxin-5-yl)amino)acetamido)ethyl)boronic acid] |
| 11 | 72.5 | 2.91 | Cc1csc(NC(=O)C(=O)N[C@@H](Cc2coc3ccccc23)B(O)O)n1 [Ex. 31, (R)-(2-(benzofuran-3-yl)-1-(2-oxo-2-((4-methylthiazol-2-yl)amino)acetamido)ethyl)boronic acid] |
| 29.2 | 132 | 7.46 | O=C(Nc1ncc(F)s1)C(=O)N[C@@H](Cc1coc2ccccc12)B(O)O [Ex. 34, (R)-(2-(benzofuran-3-yl)-1-(2-oxo-2-((5-fluorothiazol-2-yl)amino)acetamido)ethyl)boronic acid] |
